Results published in patent US20260184807A1, “Methods for Treating Rheumatoid Arthritis Using a Syndecan-1 Inhibitor or Syntenin-1 Inhibitor” (The United States Government as represented by the …, priority 2022, published 2026).

Test system: HUVECs
Assay: Syntenin-1 stimulation and inhibition in HUVECs (qRT-PCR)
Type: cell-based, human
Details: Syntenin-1 1000 ng/ml, mTORi 1 μM, cMYCi 50 μM
Experimental: FIGS. 11A-J show Syntenin-1 reprogrammed endothelial cells display a robust inflammatory phenotype. Relative expression of Syntenin-1 (FIG. 11A) or SDC-1 (FIG. 11B) was determined by RNAseq (Lewis M J, et al. Cell reports. 2019; 28:2455-2470 e2455) in synovial tissue biopsies from RA non-responsive (Non-R)(ΔDAS28≤0.6, n=16-23) and moderate (ΔDAS28 1.2 & >0.6, n=21) and good responsive (ΔDAS28>1.2, n=35-50) patients. […] HUVECs were treated with PBS (ctrl) or Syntenin-1 (1000 ng/ml) for 6 h and transcription of IRFs (FIG. 11E), inflammatory mediators (FIG. 11F), TLRs (FIG. 11I), and pro-repair factors (FIG. 11J) were assessed by qRT-PCR (n=7-12). HUVECs were treated with PBS or Syntenin-1 (1000 ng/ml) in the presence or absence of SDC-1 Ab (SDCab; 1:100), IL-5R Ab (IL5Ra; 2 μg/ml), or PDZli (PDZ1; 10 μM) for 6 h before quantifying transcription levels of TNFα (FIG. 11G) and IL-1β (FIG. 11H), (5-7). Data are presented as mean±SEM; significant differences were determined by the Mann-Whitney test, 2way ANOVA, or one-way ANOVA. *p<0.05, **p<0.01, ***p<0.001, ****p<0.0001. […]
Syntenin-1 stimulation and inhibition. […] Cells were subsequently harvested in TRIzol reagent (Life Technologies) or RIPA buffer (Cell Signaling Technology) for mRNA quantification and western blot analysis; conditioned media was collected for ELISA.
Quantitative Real-Time PCR. […]

## CO[C@H]1C[C@@H]2CC[C@@H](C)[C@@](O)(O2)C(=O)C(=O)N2CCCC[C@H]2C(=O)O[C@H]([C@H](C)C[C@@H]2CC[C@@H](OCCO)[C@H](OC)C2)CC(=O)[C@H](C)/C=C(\C)[C@@H](O)[C@@H](OC)C(=O)[C@H](C)C[C@H](C)/C=C/C=C/C=C/1C [mTORi, Everolimus]
HIF1αi 2 μM, FIG. 13H
  TNF expression in Syntenin-1-reconfigured endothelial cells: diminished
FIG. 13E
  Syntenin-1-elevated HIF1α expression levels: dysregulated
